Test results taken from patent US20240002326A1, “COMPOUNDS AND USE THEREOF IN METHODS OF TREATMENT” (The University of Queensland, priority 2016, published 2024).

Legend:
full-length mouse SOX18 = full-length mouse SOX18 (Mus musculus (Mouse), UniProt P43680); test: FP DNA-binding competition assay, full-length SOX18; details: full-length mouse SOX18, Prox1-DNA probe; for IC50: read-out: FP IC50 ± SD
Method: Full-length mouse SOX18. A N-terminally tagged mouse HIS-GST-SOX18 was recombinantly expressed in Sf9 cells, purified on GST resin (GE Healthcare Life Sciences, Sweden) and eluted in Tris buffer (50 mM Tris, 500 mM NaCl, 10 mM reduced glutathione, pH 8.0). cDNA clone of mouse Sox18 was PCR amplified and cloned into the pOPIN-GST vector, to generate N-terminally tagged HIS-GST-SOX18. A sequence verified construct was co-transfected with flashBACULTRA (Oxford Expression Technologies, Oxford, United Kingdom) baculovirus DNA onto Spodoptera frugiperda Sf9 cells to obtain recombinantly expressed HIS-GST-SOX18. High Five cells (BTI-TN-5B1-4) in Sf-900™ II serum-free medium were infected at cell density of 1.5×10^6 cells/mL with a multiplicity of infection (MOI) of 5 PFU/cell, and incubated at 21° C. for 144 h before harvest. The cell pellet from 100 mL of expression culture was resuspended in 30 mL of phosphate lysis buffer (50 mM sodium phosphate, 500 mM sodium chloride, 1% Triton X-100, 2 mM magnesium chloride, one tablet of cOmplete Protease Inhibitor Cocktail, pH 7.5) and sonicated on ice for 20 s. The cell lysate was centrifuged at 17,000×g for 40 min at 4° C. Supernatant was incubated with Benzonase Nuclease (Merck Millipore) for 1 h at room temperature for DNA degradation, before being mixed with 500 μL GST resin (GE Healthcare Life Sciences, Sweden) and incubated on a rotating wheel at room temperature for 1 h. The sample was centrifuged at 500×g for 1 min to remove unbound protein in the supernatant. The resin was further washed with 50 resin volumes (RV) wash buffer (50 mM sodium phosphate, 500 mM NaCl, pH 7.5), with unbound protein removed by centrifugation as above. Bound protein was eluted from the resin with 3×1 RV elution buffer (50 mM Tris, 500 mM NaCl, 10 mM reduced glutathione, pH 8.0), collecting the supernatant by centrifugation as above.
(§1) The DNA-binding competition assay was performed in black 384-well plates, with mouse full length SOX18, or SOX-HMG fragments. All experiments were performed using a fluorescently-labelled Prox1-DNA element. Controls consisted of free labelled DNA (low FP milli-Polarization index, mP), labelled DNA in presence of protein (negative control, high mP), and labelled DNA and protein in presence of competing excess of unlabelled DNA (positive control, low mP)
(§2) The DNA-binding competition assay was performed in 25 uL, in black 384-well plates, using either 30 mM HEPES (N-2-Hydroxyethylpiperazine-N′-2-Ethanesulfonic Acid) (pH 7.5, with 100 mM KCl, 40 mM NaCl, 10 mM NH4OAc, […], 2 mM MgCl2, 0.5 mM EDTA, 0.01% NP-40) for mouse full length SOX18, or Tris-NaCl (10 mM Tris pH 8.0 and 100 mM NaCl) for SOX-HMG fragments. All experiments were performed using a 40 bp double-stranded Prox1-DNA element with 5′ fluorescein amidite (FAM) label (Sigma Proligo or InVitrogen). Optimum binding levels were obtained at 200 nM of mouse full length SOX18 and 60 nM of SOX-HMG fragment, in presence of 5 nM labelled DNA. Controls consisted of free labelled DNA (low FP milli-Polarization index, mP), labelled DNA in presence of protein (negative control, high mP), and labelled DNA and protein in presence of 400 time competing excess of unlabelled DNA (positive control, low mP). Depending on compound, final DMSO concentrations ranged from 2 to 3.33% v/v. After mixing protein, DNA probe and compound, plates were sealed and briskly agitated in the dark for 5 minutes at room temperature, 10 minutes at 37° C., and 30 minutes at room temperature, before reading fluorescence polarization on a Tecan M1000Pro (λexc=485 nm, λem=525 nm). All experiments were performed in triplicates.

[1] = Cytotoxicity assay (Alamar blue), HEK293; type: cell-based; details: human, HEK293 cells; HEK293, 24 h
Method: Cell toxicity was determined using Alamar blue, as previously described (McMillian et al., 2002). COS-7 cells were seeded as 7000 cells per well in black wall clear bottom 96-well plates in DMEM medium (Life Technologies Australia) with 10% FBS. HepG2 and HEK293 cell lines, from ATCC, were seeded as 5000 cells per well in black wall clear bottom 384-well cell culture plates in DMEM with 1% FBS. Cells were cultured for 24 h at 37° C., 5% CO2. A serial dilution of compounds was added, with a final DMSO concentration adjusted to 0.5% v/v. Cells were incubated for another 24 h. 1 Triton X-100 was used as negative control, and 0.5% DMSO as positive control. 5 μM Alamar blue was added to each well and fluorescence was measured (λexc=560 nm, λem=590 nm) after 2 h incubation at 37° C. Data were analysed using Prism software.

SOX18[109] HMG fragment = SOX18[109] HMG fragment (Mus musculus (Mouse), UniProt P43680); test: FP DNA-binding competition assay, SOX18[109] HMG fragment; details: for remaining activity at 50 µM / remaining activity at 200 µM: SOX18/DNA binding; for remaining activity at 50 µM: read-out: FP bound fraction (%) 50 μM; for remaining activity at 200 µM: read-out: FP bound fraction (%) 200 μM; for SOX18-DNA binding inhibition (FP, words): SAR library, SOX18[109]
Chain of SOX18[109] HMG fragment (P43680 69-177): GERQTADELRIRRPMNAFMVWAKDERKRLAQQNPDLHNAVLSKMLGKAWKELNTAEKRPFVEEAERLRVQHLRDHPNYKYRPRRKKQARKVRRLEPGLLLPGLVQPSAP
Method: Mouse SOX HMG fragments. The HMG domains of mouse SOX2 (Group B), SOX11 (Group C), SOX6 (Group D), SOX9 (Group E), SOX18 (Group F) and SOX15 (Group G) were BP cloned from cDNA templates (IMAGE cDNA clone IDs: Sox18: 3967084; Sox9: 5354229; Sox4: 6822618) into a pDONRTM221 pENTRY vector, sequenced and recombined into a pETG20A or a pHisMBP expression plasmid using Gateway®LR Technology (Ng et al., 2012). Constructs were transformed into Escherichia coli BL21(DE3) cells (Luria-Bertani, 100 μg/ml Ampicillin).
as §1, §2
In order to pinpoint the possible binding site of the small molecules, the FP assays were repeated with a shorter, DNA-binding centred protein fragment. The DNA binding domain of SOX TFs consists of the […] amino acid long High Mobility Group (HMG) box. The 109 amino-acid long SOX18 fragment (SOX18[109]) corresponds to residues 69-177 (numbering by mouse SOX18), which includes the HMG box (residues 78-149) and N- and C-terminal flanking sequences of 9 and 28 amino-acids, respectively.

[2] = Cytotoxicity assay (Alamar blue), HepG2; type: cell-based; details: human, HepG2 cells; HepG2, 24 h

Chain of full-length mouse SOX18 (P43680 whole entry): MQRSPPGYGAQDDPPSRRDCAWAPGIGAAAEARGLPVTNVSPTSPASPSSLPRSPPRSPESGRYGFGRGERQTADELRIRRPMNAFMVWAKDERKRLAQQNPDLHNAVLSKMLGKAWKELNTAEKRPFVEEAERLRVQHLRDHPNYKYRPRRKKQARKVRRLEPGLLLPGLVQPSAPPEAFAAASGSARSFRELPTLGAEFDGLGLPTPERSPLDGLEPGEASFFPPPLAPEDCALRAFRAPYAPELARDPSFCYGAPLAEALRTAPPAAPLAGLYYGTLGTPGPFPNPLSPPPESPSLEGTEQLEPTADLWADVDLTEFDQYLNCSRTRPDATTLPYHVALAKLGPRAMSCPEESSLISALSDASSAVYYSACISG

Row | FP IC50 ± SD (full-length mouse SOX18) | IC50 (full-length mouse SOX18) | remaining activity at 50 µM (SOX18[109] HMG fragment) | remaining activity at 200 µM (SOX18[109] HMG fragment) | SOX18-DNA binding inhibition (FP, words) (SOX18[109] HMG fragment) | Structure (SMILES) | CC50 at 24 h [1] | CC50 at 24 h [2]
1 | high micromolar range | 341 ± 1.1 µM |  |  |  | CCCCCCCCCCCCCc1cccc(O)c1C(=O)O [Sm2, 6-tridecyl salicylic acid] |  | 
2 |  |  | 103 ± 7.4% | 121 ± 4.7% |  | CCN(CC)C(=O)c1c(/C=C\c2ccc3ccccc3c2)cccc1OC [Sm15, (Z)-N,N-diethyl-2-methoxy-6-(2-(naphthalen-2-yl)vinyl)benzamide] | > 100 µM | 
3 |  |  | 98.1 ± 6.1% | 93.1 ± 9.5% | completely eliminated all activity | O=C(O)c1c(O)cccc1CCc1ccccc1 [Sm22, 2-hydroxy-6-phenethylbenzoic acid] | > 100 µM | > 100 µM
4 |  |  | 73 ± 1.9% | 2 ± 7.2% |  | COc1cc(O)c(C(=O)O)c(CCc2ccc3ccccc3c2)c1 [Sm29, 2-hydroxy-4-methoxy-6-(2(naphthalen-2-yl)ethyl)benzoic acid] | 64.4 µM | 71.2 µM
5 |  |  | 3.9 ± 6% | 10.9 ± 5.2% |  | O=C(O)c1c(O)cc(Cl)cc1/C=C/c1ccc2ccccc2c1 [Sm32, (E)-4-chloro-2-hydroxy-6-(2-(naphthalen-2-yl)vinyl)benzoic acid] | 37.6 µM | 24 µM
6 |  |  | -1.5 ± 3.5% | -3.7 ± 7.9% |  | Cc1cc(O)c(C(=O)O)c(/C=C/c2ccc3ccccc3c2)c1 [Sm35, (E)-2-hydroxy-4-methyl-6-(2-(naphthalen-2-yl)vinyl)benzoic acid] | 52.2 µM | 30.3 µM
7 |  |  | 10.9 ± 9.6% | -3.9 ± 6.8% |  | Cc1cc(O)c(C(=O)O)c(CCc2ccc3ccccc3c2)c1 [Sm36, 2-hydroxy-4-methyl-6-(2-(naphthalen-2-yl)ethyl)benzoic acid] | 39.9 µM | 37.7 µM
8 |  |  | 106 ± 9.5% | 113 ± 3.6% |  | COc1cc(CCc2ccc3ccccc3c2)cc(OC)c1OC [Sm43, 2-(3,4,5-trimethoxyphenethyl)naphthalene] | > 100 µM | > 100 µM

The remaining lines, values behind:

Row | Structure (SMILES) | FP IC50 ± SD (full-length mouse SOX18) | IC50 (full-length mouse SOX18) | remaining activity at 50 µM (SOX18[109] HMG fragment) | remaining activity at 200 µM (SOX18[109] HMG fragment) | SOX18-DNA binding inhibition (FP, words) (SOX18[109] HMG fragment) | CC50 at 24 h [1] | CC50 at 24 h [2]
9 | CCCCCCCCCCCc1cccc(O)c1C(=O)O [Sm1, 6-undecyl salicylic acid] | high micromolar range | 348 ± 1.1 µM |  |  |  |  | 
10 | CCN(CC)C(=O)c1c(/C=C/c2ccc3ccccc3c2)cccc1OC [Sm16, (E)-N,N-diethyl-2-methoxy-6-(2-(naphthalene-2-yl)vinyl)benzamide] |  |  | 99.3 ± 6.2% | 109 ± 4.9% |  | > 100 µM | 
11 | O=C(O)c1c(O)cccc1/C=C/c1ccccc1 [Sm21, (E)-2-hydroxy-6-styrylbenzoic acid] |  |  | 103 ± 8.8% | 98.1 ± 2.1% |  | > 100 µM | > 100 µM
12 | COc1cc(/C=C/c2ccc3ccccc3c2)c(C(=O)O)c(OC)c1 [Sm27, (E)-2,4-dimethoxy-6-(2-(naphthalen-2-yl)vinyl)benzoic acid] |  |  | 97 ± 6.1% | 92.8 ± 21.7% |  | > 100 µM | > 100 µM
13 | COc1cc(CCc2ccc3ccccc3c2)c(C(=O)O)c(OC)c1 [Sm30, 2,4-dimethoxy-6-(2-(naphthalen-2-yl)ethyl)benzoic acid] |  |  | 99 ± 7.6% | 109 ± 2.8% |  | > 100 µM | > 100 µM
14 | COc1cc(/C=C/c2ccccc2)cc(OC)c1OC [Sm38, (E)-1,2,3-trimethoxy-5-styrylbenzene] |  |  | 102 ± 11.2% | 120 ± 6.6% |  | > 100 µM | > 100 µM
15 | COc1cc(CCc2ccccc2)cc(OC)c1OC [Sm39, 1,2,3-trimethoxy-5-phenethylbenzene] |  |  | 102 ± 9.7% | 117 ± 8.1% |  | > 100 µM | > 100 µM
16 | Oc1cc(CCc2ccc3ccccc3c2)cc(O)c1O [Sm44, 5-(2-(naphthalen-2-yl)ethyl)benzene-1,2,3-triol] |  |  | 108 ± 10.1% | 53.5 ± 9.6% | not active | > 100 µM | > 100 µM
